The values that follow come from ChEMBL document CHEMBL4354842, “A Series of Compounds Bearing a Dipyrido-Pyrimidine Scaffold Acting as Novel Human and Insect Pest Chitinase Inhibitors” (J Med Chem, 2020).

Assay [1] concerns the target T1, Chitinase B (Serratia marcescens) (UniProt P11797).
T1 sequence (whole entry): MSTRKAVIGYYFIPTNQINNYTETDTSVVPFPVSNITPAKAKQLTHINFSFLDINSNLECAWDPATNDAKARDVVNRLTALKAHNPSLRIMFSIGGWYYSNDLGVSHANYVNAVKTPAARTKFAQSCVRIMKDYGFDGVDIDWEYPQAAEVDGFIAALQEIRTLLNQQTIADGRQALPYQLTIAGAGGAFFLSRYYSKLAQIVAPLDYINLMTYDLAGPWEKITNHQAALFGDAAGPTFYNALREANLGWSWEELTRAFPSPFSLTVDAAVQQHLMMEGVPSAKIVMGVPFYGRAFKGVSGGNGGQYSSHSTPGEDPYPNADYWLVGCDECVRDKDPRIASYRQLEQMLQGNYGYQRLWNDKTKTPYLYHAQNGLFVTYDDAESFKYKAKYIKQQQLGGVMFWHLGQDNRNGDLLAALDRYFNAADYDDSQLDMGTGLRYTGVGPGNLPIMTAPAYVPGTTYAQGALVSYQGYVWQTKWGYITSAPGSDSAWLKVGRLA
In words: Inhibition of Serratia marcescens chitinase b catalytic domain overexpressed in Escherichia coli BL21(DE3) cells at 1 uM using 4MU-(GlcNAc)2 as substrate after 30 mins by fluorescence based microplate reader analysis.

Assay [2] has as its target Chitinase (Ostrinia furnacalis) (UniProt Q4AE59). In words: Inhibition of Ostrinia furnacalis chitinase h catalytic domain overexpressed in Pichia pastoris at 1 uM using 4MU-(GlcNAc)2 as substrate after 30 mins by fluorescence based microplate reader analysis.
Assay [3] deals with T2, Acidic mammalian chitinase (Homo sapiens, UniProt Q9BZP6). Put plainly: Inhibition of human acidic mammalian chitinase catalytic domain overexpressed in Pichia pastoris at 10 uM using 4MU-(GlcNAc)2 as substrate after 30 mins by fluorescence based microplate reader analysis.
Target sequence in this assay (Q9BZP6 22-476 limits assumed): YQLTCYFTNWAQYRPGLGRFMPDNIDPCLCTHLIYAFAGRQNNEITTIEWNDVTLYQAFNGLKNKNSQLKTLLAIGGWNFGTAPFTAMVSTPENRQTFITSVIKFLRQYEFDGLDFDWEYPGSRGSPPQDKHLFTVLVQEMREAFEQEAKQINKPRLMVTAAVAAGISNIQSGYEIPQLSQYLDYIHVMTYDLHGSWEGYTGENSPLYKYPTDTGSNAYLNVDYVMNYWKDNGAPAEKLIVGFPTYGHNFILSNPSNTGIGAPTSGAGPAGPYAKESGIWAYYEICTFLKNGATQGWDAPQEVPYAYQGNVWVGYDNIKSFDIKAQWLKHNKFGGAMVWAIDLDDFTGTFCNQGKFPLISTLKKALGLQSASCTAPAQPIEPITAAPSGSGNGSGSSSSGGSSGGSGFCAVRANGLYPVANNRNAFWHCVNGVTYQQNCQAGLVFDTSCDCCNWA
Assay [4] deals with T3, Chitotriosidase-1 (Homo sapiens, UniProt Q13231). Put plainly: Inhibition of human CHIT1 catalytic domain overexpressed in Pichia pastoris at 10 uM using 4MU-(GlcNAc)2 as substrate after 30 mins by fluorescence based microplate reader analysis.
Target sequence in this assay (Q13231 22-466 limits assumed): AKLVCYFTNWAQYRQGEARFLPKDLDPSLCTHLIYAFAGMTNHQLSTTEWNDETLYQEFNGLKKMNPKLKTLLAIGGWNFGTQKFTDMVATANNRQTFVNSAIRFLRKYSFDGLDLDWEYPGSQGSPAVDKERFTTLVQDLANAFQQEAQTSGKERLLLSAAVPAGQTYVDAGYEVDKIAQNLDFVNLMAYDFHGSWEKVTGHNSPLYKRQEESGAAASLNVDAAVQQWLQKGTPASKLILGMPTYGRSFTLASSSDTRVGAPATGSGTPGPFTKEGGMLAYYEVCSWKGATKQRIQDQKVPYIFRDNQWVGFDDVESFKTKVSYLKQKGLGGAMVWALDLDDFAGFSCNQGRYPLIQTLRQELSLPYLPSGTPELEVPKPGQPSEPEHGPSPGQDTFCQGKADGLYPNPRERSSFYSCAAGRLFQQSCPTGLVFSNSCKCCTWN
For assay [5], the target named is T4, Chitinase B (Serratia marcescens, UniProt P11797).
T4 sequence (P11797 whole entry): T1 sequence (whole entry)
Put plainly: Binding affinity to Serratia marcescens chitinase b catalytic domain overexpressed in Escherichia coli BL21(DE3) cells by isothermal titration calorimetry. For orientation: Isothermal titration calorimetry measures the heat released or taken up as one component is titrated into another.

Assay [6] concerns the target T1, Chitinase B (Serratia marcescens). In words: Binding affinity to Serratia marcescens chitinase b catalytic domain overexpressed in Escherichia coli BL21(DE3) cells assessed as association constant by isothermal titration calorimetry.
The target of assay [7] is T3, Chitotriosidase-1. Put plainly: Binding affinity to human CHIT1 catalytic domain overexpressed in Pichia pastoris assessed by isothermal titration calorimetry.
Target sequence in this assay (Q13231 whole entry, the tested form may be a part): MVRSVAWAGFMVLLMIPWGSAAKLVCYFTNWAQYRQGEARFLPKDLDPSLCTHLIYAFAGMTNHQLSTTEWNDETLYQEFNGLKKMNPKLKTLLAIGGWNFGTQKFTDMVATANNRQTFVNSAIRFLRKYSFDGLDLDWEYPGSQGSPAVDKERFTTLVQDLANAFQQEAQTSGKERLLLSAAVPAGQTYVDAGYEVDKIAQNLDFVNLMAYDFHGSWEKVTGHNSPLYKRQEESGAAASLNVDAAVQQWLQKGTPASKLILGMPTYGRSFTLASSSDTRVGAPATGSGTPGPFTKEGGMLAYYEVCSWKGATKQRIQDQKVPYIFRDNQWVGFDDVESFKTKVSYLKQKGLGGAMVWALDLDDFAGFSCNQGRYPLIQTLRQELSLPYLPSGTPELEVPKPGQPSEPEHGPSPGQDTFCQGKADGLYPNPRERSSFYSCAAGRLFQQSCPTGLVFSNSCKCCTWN
For assay [8], the target named is T3, Chitotriosidase-1. In words: Binding affinity to human CHIT1 catalytic domain overexpressed in Pichia pastoris assessed as association constant by isothermal titration calorimetry.
Target sequence in this assay (Q13231 22-466 limits assumed): as the sequence (Q13231 22-466 limits assumed) above
In assay [9] the target is T4, Chitinase B. Put plainly: Inhibition of Serratia marcescens chitinase b catalytic domain overexpressed in Escherichia coli BL21(DE3) cells using 4MU-(GlcNAc)2 as substrate after 30 mins by fluorescence based microplate reader analysis.
Assay [10] concerns the target T5, Chitinase (Ostrinia furnacalis, UniProt Q4AE59). Put plainly: Inhibition of Ostrinia furnacalis chitinase h catalytic domain overexpressed in Pichia pastoris using 4MU-(GlcNAc)2 as substrate after 30 mins by fluorescence based microplate reader analysis.
In assay [11] the target is Acidic mammalian chitinase (Mus musculus, UniProt Q91XA9). Put plainly: Inhibition of mouse acidic mammalian chitinase catalytic domain overexpressed in Pichia pastoris using 4MU-(GlcNAc)2 as substrate after 30 mins by fluorescence based microplate reader analysis.
Assay [12] addresses Chitotriosidase-1 (Mus musculus, UniProt Q9D7Q1). In words: Inhibition of mouse CHIT1 catalytic domain overexpressed in Pichia pastoris using 4MU-(GlcNAc)2 as substrate after 30 mins by fluorescence based microplate reader analysis.
Assay [13] concerns the target T2, Acidic mammalian chitinase. Put plainly: Inhibition of human acidic mammalian chitinase catalytic domain overexpressed in Pichia pastoris using 4MU-(GlcNAc)2 as substrate after 30 mins by fluorescence based microplate reader analysis.
Target sequence in this assay (Q9BZP6 whole entry, the tested form may be a part): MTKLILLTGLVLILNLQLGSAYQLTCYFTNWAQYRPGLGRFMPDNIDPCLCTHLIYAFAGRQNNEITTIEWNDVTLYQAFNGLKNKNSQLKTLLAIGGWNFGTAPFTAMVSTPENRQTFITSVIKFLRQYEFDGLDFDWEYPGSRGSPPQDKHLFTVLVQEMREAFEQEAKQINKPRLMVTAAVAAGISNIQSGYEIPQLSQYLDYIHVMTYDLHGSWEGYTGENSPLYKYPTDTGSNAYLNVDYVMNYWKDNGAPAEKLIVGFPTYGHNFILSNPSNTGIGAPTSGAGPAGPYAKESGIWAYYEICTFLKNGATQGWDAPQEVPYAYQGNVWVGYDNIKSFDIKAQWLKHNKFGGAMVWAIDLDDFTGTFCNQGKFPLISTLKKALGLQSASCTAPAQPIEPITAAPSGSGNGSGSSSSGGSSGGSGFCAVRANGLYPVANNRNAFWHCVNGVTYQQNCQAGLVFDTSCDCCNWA
The target of assay [14] is T3, Chitotriosidase-1. Put plainly: Inhibition of human CHIT1 catalytic domain overexpressed in Pichia pastoris using 4MU-(GlcNAc)2 as substrate after 30 mins by fluorescence based microplate reader analysis.
Target sequence in this assay (Q13231 whole entry, the tested form may be a part): as the sequence (Q13231 whole entry, the tested form may be a part) above
Assay [15] has as its target T5, Chitinase. In words: Binding affinity to Ostrinia furnacalis chitinase h catalytic domain overexpressed in Pichia pastoris by isothermal titration calorimetry.
The target in assay [16] is T3, Chitotriosidase-1. Put plainly: Inhibition of human CHIT1 catalytic domain overexpressed in Pichia pastoris at 50 uM using 4MU-(GlcNAc)2 as substrate after 30 mins by fluorescence based microplate reader analysis relative to control.
Target sequence in this assay (Q13231 22-466 limits assumed): as the sequence (Q13231 22-466 limits assumed) above

Activity calls are given as the source filed them. No cut-off for these calls is given here.

Chitinase (Ostrinia furnacalis), sequence (Q4AE59 as listed by the source): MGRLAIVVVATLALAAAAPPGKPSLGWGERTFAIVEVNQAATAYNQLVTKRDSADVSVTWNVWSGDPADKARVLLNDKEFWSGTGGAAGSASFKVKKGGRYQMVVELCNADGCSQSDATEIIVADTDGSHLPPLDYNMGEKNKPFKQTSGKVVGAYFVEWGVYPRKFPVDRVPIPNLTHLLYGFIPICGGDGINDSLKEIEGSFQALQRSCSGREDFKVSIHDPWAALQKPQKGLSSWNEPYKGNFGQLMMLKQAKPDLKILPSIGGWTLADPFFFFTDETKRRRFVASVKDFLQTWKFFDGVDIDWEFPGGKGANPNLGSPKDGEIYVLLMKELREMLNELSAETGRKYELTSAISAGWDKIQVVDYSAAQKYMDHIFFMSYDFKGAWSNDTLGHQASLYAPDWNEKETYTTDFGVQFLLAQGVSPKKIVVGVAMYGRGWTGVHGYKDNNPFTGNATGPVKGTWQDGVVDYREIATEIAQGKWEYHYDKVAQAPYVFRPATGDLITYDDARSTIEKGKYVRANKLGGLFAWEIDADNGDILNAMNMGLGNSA
T5 sequence (Q4AE59 whole entry, the tested form may be a part): as the sequence (Q4AE59 as listed by the source) above
Acidic mammalian chitinase (Mus musculus, UniProt Q91XA9), sequence (Q91XA9 whole entry, the tested form may be a part): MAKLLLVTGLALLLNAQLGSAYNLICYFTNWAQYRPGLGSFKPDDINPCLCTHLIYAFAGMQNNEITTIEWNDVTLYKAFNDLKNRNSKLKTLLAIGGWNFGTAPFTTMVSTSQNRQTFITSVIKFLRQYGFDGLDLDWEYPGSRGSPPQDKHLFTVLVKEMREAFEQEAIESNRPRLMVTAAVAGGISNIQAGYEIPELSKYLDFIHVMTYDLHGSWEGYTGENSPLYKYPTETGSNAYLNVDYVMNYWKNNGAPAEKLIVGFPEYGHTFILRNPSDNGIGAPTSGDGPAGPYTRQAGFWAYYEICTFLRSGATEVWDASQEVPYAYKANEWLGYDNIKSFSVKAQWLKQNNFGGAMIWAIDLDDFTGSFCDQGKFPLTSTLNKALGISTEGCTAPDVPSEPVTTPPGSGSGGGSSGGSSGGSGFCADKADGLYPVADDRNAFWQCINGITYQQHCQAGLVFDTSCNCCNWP
Chitotriosidase-1 (Mus musculus, UniProt Q9D7Q1), sequence (Q9D7Q1 whole entry, the tested form may be a part): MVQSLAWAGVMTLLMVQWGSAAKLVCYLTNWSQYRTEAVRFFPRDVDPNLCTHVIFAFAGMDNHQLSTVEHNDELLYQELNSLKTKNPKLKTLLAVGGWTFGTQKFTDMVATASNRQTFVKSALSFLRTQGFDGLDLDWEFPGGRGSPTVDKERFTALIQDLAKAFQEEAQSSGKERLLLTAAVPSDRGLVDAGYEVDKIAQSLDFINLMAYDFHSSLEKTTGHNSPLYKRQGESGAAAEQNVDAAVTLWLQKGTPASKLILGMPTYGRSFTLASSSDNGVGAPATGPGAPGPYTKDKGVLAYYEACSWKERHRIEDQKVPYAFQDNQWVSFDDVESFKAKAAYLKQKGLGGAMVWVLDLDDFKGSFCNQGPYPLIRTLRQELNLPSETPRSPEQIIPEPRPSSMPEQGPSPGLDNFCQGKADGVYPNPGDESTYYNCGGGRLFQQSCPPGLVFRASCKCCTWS

A word on the inhibition: it is the drop in the measured response relative to a control, in per cent. Turning to `N=c1c(C(=O)NC2CCCCC2)cc2c(=O)n3ccccc3nc2n1Cc1cccnc1`, the inhibition entry (in [1]; in assay [2]; in [3]; on Chitotriosidase-1 [4]) was “inactive” in each case.

On to `Cc1cccn2c(=O)c3cc(C(=O)N[C@H](C)c4ccccc4)c(=N)n(C[C@H]4CCCO4)c3nc12`, for which the inhibition result (in assay [1]; in assay [2]; in assay [3]; at Chitotriosidase-1 [4]) was “Active” each time.

As to `C[C@@H](NC(=O)c1cc2c(=O)n3ccccc3nc2n(C[C@H]2CCCO2)c1=N)c1ccccc1`, the inhibition entry (in [1]; in assay [2]; in [3]; on Chitotriosidase-1 [4]) was “Active” throughout.

As for `COCCn1c(=N)c(C(=O)NCCN2CCCCC2)cc2c(=O)n3ccccc3nc21`, the inhibition result (in assay [1]; in assay [2]; in assay [3]; on Chitotriosidase-1 [4]) was “inactive” in each case.

Regarding `N=c1c(C(=O)NCc2cccnc2)cc2c(=O)n3ccccc3nc2n1Cc1ccccc1`, the inhibition result (in assay [1]; in assay [2]; in assay [3]; at Chitotriosidase-1 [4]) was “Active” in each case.

Regarding `Cc1ccc2nc3c(cc(C(=O)N[C@H](C)c4ccccc4)c(=N)n3C[C@H]3CCCO3)c(=O)n2c1`, the inhibition result (in [1]; in assay [2]; in assay [3]; on Chitotriosidase-1 [4]) was “Active” in each case.

On to `Cc1ccc2nc3c(cc(C(=O)NCc4cccnc4)c(=N)n3C[C@H]3CCCO3)c(=O)n2c1`, for which the inhibition entry (in assay [1]; in assay [2]; in [3]; at Chitotriosidase-1 [4]) was “Active” each time.

Regarding `CCOC(=O)c1cc2c(=O)n3ccccc3nc2n(Cc2ccco2)c1=N`, the inhibition result (in assay [1]; in assay [2]; in assay [3]; on Chitotriosidase-1 [4]) was “inactive” in each case.

With `COC(=O)c1cc2c(=O)n3ccccc3nc2n(Cc2cccnc2)c1=N`, the inhibition result (in assay [1]; in assay [2]; in assay [3]; on Chitotriosidase-1 [4]) was “inactive” in each case.

Consider `COCCCn1c(=N)c(C(=O)NCc2ccc(F)cc2)cc2c(=O)n3ccccc3nc21`, for which the inhibition entry (in assay [1]; in assay [2]; in assay [3]; at Chitotriosidase-1 [4]) was “inactive” each time.

On to `Cc1cccn2c(=O)c3cc(C(=O)NCc4cccnc4)c(=N)n(Cc4ccc(F)cc4)c3nc12`, for which the inhibition entry (in [1]; in [2]; in assay [3]; at Chitotriosidase-1 [4]) was “Active” throughout.

In the case of `COCCCn1c(=N)c(-c2nc3ccccc3s2)cc2c(=O)n3ccccc3nc21`, the inhibition result (in [1]; in [2]; in assay [3]; on Chitotriosidase-1 [4]) was “inactive” each time.

Regarding `COCCCn1c(=N)c(C(=O)NCc2ccc(C)cc2)cc2c(=O)n3ccccc3nc21`, the inhibition result (in assay [1]; in assay [2]; in assay [3]; at Chitotriosidase-1 [4]) was “inactive” each time.

On to `Cc1cccn2c(=O)c3cc(C#N)c(=N)n(Cc4ccccc4)c3nc12`, for which the inhibition entry (in assay [1]; in assay [2]; in [3]; at Chitotriosidase-1 [4]) was “inactive” throughout.

The Kd is a measure of binding affinity in units of concentration. Low values mean tighter binding, high ones weaker binding. For orientation: Ki means the dissociation constant of the complex between target and ligand, obtained from inhibition or displacement. A higher Ki goes with a looser hold on the target. As to `Cc1cccn2c(=O)c3cc(C(=O)NCc4cccnc4)c(=N)n(CC4CCCO4)c3nc12` (stereo not given), the dissociation constant Kd at Chitinase B [5] was found to be 190 nM; at Chitotriosidase-1 [7], 1120 nM; at Chitinase [15] it was 85 nM. The figures for the Ka (in [6]; at Chitotriosidase-1 [8]) were 5.1e+06 M⁻¹ and 895000 M⁻¹, respectively. Also, the inhibition result (in assay [1]; in assay [2]; in assay [3]; on Chitotriosidase-1 [4]) was “Active” throughout. The Ki at Chitinase B [9] came to 58 nM; on Chitinase [10], 9 nM; in [11] it was 1380 nM; at Chitotriosidase-1 [12] it was 1940 nM; in assay [13], 9720 nM; on Chitotriosidase-1 [14], 1120 nM.

Take `COCCCn1c(=N)c(C(=O)N[C@@H](C)c2ccccc2)cc2c(=O)n3ccccc3nc21`: the inhibition result (in assay [1]; in [2]; in [3]; on Chitotriosidase-1 [4]) was “Active” throughout.

On to `Cc1cccn2c(=O)c3cc(C#N)c(=N)n(Cc4cccnc4)c3nc12`, for which the inhibition result (in [1]; in [2]; in assay [3]; on Chitotriosidase-1 [4]) was “inactive” each time.

Take `COCCCn1c(=N)c(C(=O)NCc2ccc(OC)cc2)cc2c(=O)n3ccccc3nc21`: the inhibition result (in assay [1]; in assay [2]; in [3]; at Chitotriosidase-1 [4]) was “inactive” in each case.

With `COCCCn1c(=N)c(C(=O)NCc2cccnc2)cc2c(=O)n3ccccc3nc21`, the inhibition result (in [1]; in assay [2]; in assay [3]; on Chitotriosidase-1 [4]) was “inactive” throughout.

Consider `CNC(=O)c1cc2c(=O)n3cc(C)ccc3nc2n(Cc2cccnc2)c1=N`, for which the inhibition result (in [1]; in [2]; in [3]; at Chitotriosidase-1 [4]) was “inactive” each time.

Take `Cc1cccn2c(=O)c3cc(C(=O)NCc4cccnc4)c(=N)n(Cc4ccco4)c3nc12`: the inhibition result (in assay [1]; in assay [2]; in assay [3]; at Chitotriosidase-1 [4]) was “Active” throughout.

For `N=c1c(C(=O)NCC2CCCO2)cc2c(=O)n3ccccc3nc2n1Cc1ccco1` (stereo not given), on Chitotriosidase-1 [16], the inhibition was 100%.

Consider `C=CCn1c(=N)c(C(=O)N2CCN(C)CC2)cc2c(=O)n3cccc(C)c3nc21`, for which the inhibition result (in [1]; in assay [2]; in [3]; at Chitotriosidase-1 [4]) was “inactive” each time.
